The values that follow come from patent publication US9018388B2, “Pesticidal compositions and processes related thereto” (Dow AgroSciences LLC, priority 2012, dated 2015).

For test [1], the system named is Beet Armyworm (BAW) (Spodoptera exigua). Nature of the test: Bioassay on beet armyworm (BAW), 128-well diet tray assay. It counts as in vivo. Conditions: Spodoptera exigua; Beet armyworm, 50 μg/cm^2; read-out: % Mortality BAW 50 μg/cm^2. The method, then: (§1) Bioassays on Beet Armyworm (“BAW”) and Corn Earworm (“CEW”)
(§2) Certain molecules disclosed in this document were tested against BAW and CEW using procedures described in the following examples. In the reporting of the results, the “BAW & CEW Rating Table” was used (See Table Section).
Bioassays on BAW (Spodoptera exigua)
Bioassays on BAW were conducted using a 128-well diet tray assay. One to five second instar BAW larvae were placed in each well (3 mL) of the diet tray that had been previously filled with 1 mL of artificial diet to which 50 μg/cm^2 of the test compound (dissolved in 50 μL of 90:10 acetone-water mixture) had been applied (to each of eight wells) and then allowed to dry. Trays were covered with a clear self-adhesive cover and held at 25° C., 14:10 light-dark for five to seven days. Percent mortality was recorded for the larvae in each well; activity in the eight wells was then averaged. The results are indicated in the table entitled “Table 5: Biological Results” (See Table Section).

Test [2] deals with Corn Earworm (CEW) (Helicoverpa zea). Put plainly: Bioassay on corn earworm (CEW), 128-well diet tray assay. It counts as in vivo. Conditions: Helicoverpa zea; Corn earworm, 50 μg/cm^2; read-out: % Mortality CEW 50 μg/cm^2. The method, then:
as §1, §2
Bioassays on CEW (Helicoverpa zea)
Bioassays on CEW were conducted using a 128-well diet tray assay. One to five second instar CEW larvae were placed in each well (3 mL) of the diet tray that had been previously filled with 1 mL of artificial diet to which 50 μg/cm^2 of the test compound (dissolved in 50 μL of 90:10 acetone-water mixture) had been applied (to each of eight wells) and then allowed to dry. Trays were covered with a clear self-adhesive cover and held at 25° C., 14:10 light-dark for five to seven days. Percent mortality was recorded for the larvae in each well; activity in the eight wells was then averaged. The results are indicated in the table entitled “Table 5: Biological Results” (See Table Section).

For the compound `CC1CCS/C(=N\N=C\c2ccc(-c3ncn(-c4ccc(OC(F)(F)F)cc4)n3)cc2)N1c1ccccc1OC(F)F` (centres unmarked) [Compound 221C], the pest or weed control at 50 µg/cm2, 50 µg/cm2 in test [1] and in test [2] was 50 to 100% in each case.

For `Cc1cccc(C)c1/N=C(/N/N=C/c1ccc(-c2ncn(-c3ccc(OC(F)(F)F)cc3)n2)cc1)SCc1ccc(C(F)(F)F)o1` [Compound 16C], the pest or weed control at 50 µg/cm2, 50 µg/cm2 in test [1] and in test [2] was 50 to 100% each time.

For the compound `CCOc1ccccc1N1C(=O)CS/C1=N\N=C\c1ccc(-c2ncn(-c3ccc(OC(F)(F)F)cc3)n2)cc1` [Compound 116C], the pest or weed control at 50 µg/cm2, 50 µg/cm2 in test [1] and in test [2] was 50 to 100% each time.

`COc1ccc(N2/C(=N/N=C/c3ccc(-c4ncn(-c5ccc(OC(F)(F)F)cc5)n4)cc3)SCCC2C)c(C)c1` (centres unmarked) [Compound 219C]: the pest or weed control at 50 µg/cm2, 50 µg/cm2 in test [1] and in test [2] was 50 to 100% throughout.

With `CCC(C)c1ccccc1N1C(=O)CS/C1=N\N=C\c1ccc(-c2ncn(-c3ccc(OC(F)(F)F)cc3)n2)cc1` (centres unmarked) [Compound 108C], the pest or weed control at 50 µg/cm2, 50 µg/cm2 in test [1] and in test [2] was 50 to 100% each time.

As for `COc1cc(C)c(/N=C(\N/N=C/c2ccc(-c3ncn(-c4ccc(C(F)(F)F)cc4)n3)cc2)SCOC(=O)C(C)C)c(C)c1` [Compound 46C], the pest or weed control at 50 µg/cm2, 50 µg/cm2 in test [1] and in test [2] was 50 to 100% in each case.

For `CC(C)c1c(F)cccc1N1CS/C1=N\N=C\c1ccc(-c2ncn(-c3ccc(OC(F)(F)F)cc3)n2)cc1` [Compound 253C], the pest or weed control at 50 µg/cm2, 50 µg/cm2 in test [1] and in test [2] was 50 to 100% each time.

`Cc1cccc(C)c1/N=C(/N/N=C/c1ccc(-c2ncn(-c3ccc(OC(F)(F)F)cc3)n2)cc1)SCC(=O)N1CCNCC1` [Compound 67C]: the pest or weed control at 50 µg/cm2, 50 µg/cm2 in test [1] and in test [2] was 50 to 100% each time.

Consider `CCCc1ccccc1N1C(=O)C(C)S/C1=N\N=C\c1ccc(-c2ncn(-c3ccc(OC(F)(F)F)cc3)n2)cc1` (centres unmarked) [Compound 128C], for which the pest or weed control at 50 µg/cm2, 50 µg/cm2 in test [1] and in test [2] was 50 to 100% in each case.

Consider `Cc1cccc(C)c1/N=C(/N/N=C/c1ccc(-c2ncn(-c3ccc(OC(F)(F)F)cc3)n2)cc1)SCOC(=O)C(C)C` [Compound 25C], for which the pest or weed control at 50 µg/cm2, 50 µg/cm2 in test [1] and in test [2] was 50 to 100% each time.

On to `Fc1cccc(F)c1N1CS/C1=N\N=C\c1ccc(-c2ncn(-c3ccc(OC(F)(F)F)cc3)n2)cc1` [Compound 245C], for which the pest or weed control at 50 µg/cm2, 50 µg/cm2 in test [1] and in test [2] was 50 to 100% in each case.

Regarding `COc1cc(C)c(-n2c(C(=O)O)cs/c2=N\N=C\c2ccc(-c3ncn(-c4ccc(OC(F)(F)F)cc4)n3)cc2)c(C)c1` [Compound 80C], the pest or weed control at 50 µg/cm2, 50 µg/cm2 in test [1] and in test [2] was 50 to 100% each time.

Turning to `COC(=O)C1CC(c2ccc(/C=N/N=C3\SCC(=O)N3c3c(Cl)cccc3Cl)cc2)=NN1c1ccc(OC(F)(F)F)cc1` (centres unmarked) [Compound 109C], the pest or weed control at 50 µg/cm2, 50 µg/cm2 in test [1] and in test [2] was 50 to 100% in each case.

Take `Cc1cc(C)c(N2CCCS/C2=N\N=C\c2ccc(-c3ncn(-c4ccc(OC(F)(F)F)cc4)n3)cc2)c(C)c1` [Compound 184C]: the pest or weed control at 50 µg/cm2, 50 µg/cm2 in test [1] and in test [2] was 50 to 100% throughout.

For `COc1ccc(N2C(=O)CS/C2=N\N=C\c2ccc(-c3ncn(-c4ccc(OC(F)(F)F)cc4)n3)cc2)cc1` [Compound 115C], the pest or weed control at 50 µg/cm2, 50 µg/cm2 in test [1] lay within 0 to 50%.

On to `CCOc1cccc(OCC)c1N1C(=O)CS/C1=N\N=C\c1ccc(-c2ncn(-c3ccc(OC(F)(F)F)cc3)n2)cc1` [Compound 98C], for which, in test [1], the pest or weed control at 50 µg/cm2, 50 µg/cm2 was in the range of 50 to 100%.

Regarding `Cc1cccc(C)c1/N=C(/N/N=C/c1ccc(-c2ncn(-c3ccc(OC(F)(F)F)cc3)n2)cc1)SCc1ccc(F)cc1F` [Compound 7C], the pest or weed control at 50 µg/cm2, 50 µg/cm2 in test [2] was in the range of 50 to 100%.

On to `FC(F)(F)Oc1ccc(-n2cnc(-c3ccc(/C=N/N=C4\SCCN4c4ccccc4OC(F)(F)F)cc3)n2)cc1` [Compound 153C], for which the pest or weed control at 50 µg/cm2, 50 µg/cm2 in test [2] is 50 to 100%.
